Experimental data: patent US10059996B2, “Susceptibility to and stratification for monoaminergic antidepressants” (priority 2012, dated 2018)
“Also recorded” adds a separate entry of the source. Structures can show the parent of a compound that is named as a salt.

Tests used:
[1] = system: BDNF-gene exon-IV promoter construct; assay: Luciferase-based reporter gene assay with BDNF-gene exon-IV promoter construct in SH-SY5Y cells; format: cell-based, human; details: 48 h incubation, fluoxetine 3, 5, 10 μM or venlafaxine 10, 30, 50 μM; for change of luciferase reporter gene activity (luminescence), methylated construct: Sss1-methylated BDNF-gene exon-IV promoter in pGL4.14, SH-SY5Y; for change of luciferase reporter gene activity (luminescence), unmethylated construct: unmethylated BDNF-gene exon-IV promoter in pGL4.14, SH-SY5Y, hydrochloride
[2] = system: SH-Sy5Y cells; assay: CellTiter-Glo Luminescent Cell Viability Assay (cytotoxic concentrations); details: 10 μM, 30 μM, 50 μM Venlafaxine
Description: Cells were maintained at 37° C. in a humidified atmosphere of 5% CO2 in atmosphere. To determine cytotoxic concentrations of fluoxetine and venlafaxine by CellTiter-Glo Luminescent Cell Viability Assay (Promega, Madison, Wis.) 1.5×10^5 cells were plated in 96 well plates and grown for 24 hours. Three wells at a time were incubated with different amounts of fluoxetine hydrochloride or venlafaxine hydrochloride (both Sigma-Aldrich Germany, Taufkirchen), both solved in sterile deionized water at 4 mg/mL. […] After incubation for 24 hours cytotoxicity was documented by microscope photography and measured using a GloMax Multi+ Detection System (Promega, Madison, Wis.).

Structure (SMILES)	change of luciferase reporter gene activity (luminescence), methylated construct [1]	change of luciferase reporter gene activity (luminescence), unmethylated construct [1]	cytotoxicity at the concentrations used [2]
CNCCC(Oc1ccc(C(F)(F)F)cc1)c1ccccc1 (centres unmarked) [fluoxetine, fluoxetine hydrochloride]	did not change expression levels	decrease of reporter gene activity; also recorded: significant decrease of luciferase expression	
COc1ccc(C(CN(C)C)C2(O)CCCCC2)cc1 (centres unmarked) [venlafaxine, venlafaxine hydrochloride]	did not change expression levels	decrease of reporter gene activity; also recorded: significant decrease of luciferase expression	non-toxic
